Assay results: patent US20080090847A1, “HETEROCYCLIC COMPOUNDS AND USES THEREOF AS D-ALANYL-D-ALANINE LIGASE INHIBITORS” (PLIVA D.D., priority 2001, published 2008)
Read-outs that look alike come from different tables or passages of the source.

Experiments:
Type in all cases: biochemical
[1] = target: E. coli ligase (D-Ala-D-Ala ligase) (Escherichia coli, UniProt P07862); assay: D-Ala-D-Ala ligase Ki determination (PK/LDH coupled assay), E. coli ligase
Description: (§1) Inhibition of D-Ala-D-Ala ligase can be assayed for using the pyruvate kinase/lactate dehydrogenase (PK/LDH) assay described in Example 2, and as described in the literature (e.g., in Sarthy et al., Anal. Biochem., 254:288-290, 1997). In the bacterial cell wall synthesis process, the ligase catalyzes the conversion of adenosine triphosphate (ATP) to adenosine diphosphate (ADP) concurrent with the ligation of two D-alanine residues to form D-alanyl-D-alanine. PK then regenerates ATP from the ADP thus created simultaneously with the conversion of phosphopyruvate to pyruvate. LDH catalyzes the reduction of pyruvate to lactate by converting NADH to NAD^+. By monitoring the production rate of NAD^+ (e.g., using UV/Vis spectroscopy), D-Ala-D-Ala ligase activity can be ascertained.
(§2) The protein sequence for the enzyme D-ala-D-ala ligase has been determined in a variety of different bacterial species using standard techniques in biochemistry (see Table 5). The protein sequence from any species can be overexpressed in an appropriate host organism such as E. coli using standard molecular biology techniques. The ligase enzyme can be harvested, purified, and used in the above described assay for the determination of inhibitory activity.
(§3) The synthetic analogs of Example 1 were dissolved in dimethylsulfoxide (DMSO) at a concentration of 100 mM on the day of screening, using a vortex mixer and sonication if necessary for dissolution. The solutions were kept at room temperature until screening was completed.
(§4) A 10 mM NADH (Sigma) stock solution was prepared freshly on the day of screening by dissolving 32 μmol NADH in 3.2 ml double-distilled water. The NADH solution was kept on ice. Stock solutions containing 50 mM phosphoenolpyruvate (PEP; Sigma), 500 μM HERMES, 30 mM adenosine triphosphate (ATP; Sigma), 200 mM D-alanine (Sigma), and 4× core buffer (i.e., 400 mM Hepes, 40 mM magnesium chloride, and 40 mM potassium chloride), were also stored on ice. A stock solution of pyruvate kinase/lactate dehydrogenase (PK/LDH) was also obtained from Sigma.
(§5) Table of Final concentrations are dependent on the type of screening:
(§6) For each set of test compounds, two 96-well plates were used: an inhibitor plate and an enzyme plate. The test compounds correspond to rows A-G of the plates. Adenosine (Sigma) dissolved in DMSO, used as a control, corresponds to row H of each plate.
(§7) The enzyme solution was allowed to equilibrate to 25° C.
(§8) Dilutions were prepared in the inhibitor plate as follows: 50 μl DMSO was added to each well of columns 1-11, rows A-G, of the inhibitor plate. 50 μl DMSO were added to each well of columns 1-11, row H. 100 μl of the 100 mM test solutions were added to column 12, rows A-G (i.e., the first compound in row A, the second compound in row B, and so on). 100 μl of a 100 mM Adenosine solution was added to column 12, row H.
(§9) 50 μl of the test solution was transferred from column 12 in each row to column 11 of the a same row, mixing the solution with the DMSO. 50 μl of solution was then transferred from column 11 in each row to column 10 in the same row, 50 μl from column 10 was transferred to column 9, and so on, down to column 2. No solution was transferred to column 1. Multichannel pipettors were used in making the serial dilution.
(§10) 120 μl of the enzyme solution was added to each well of the enzyme plate.
(§11) The substrate solutions were brought to 25° C.
(§12) The analogs and enzymes were then incubated at 25° C. Since the reactions were initiated in columns, the analog addition is also in columns. At t=0 minutes, 5 μl analog was transferred from each well of columns 1-4 of the inhibitor plate to the corresponding well of the enzyme plate. At t=4 minutes, 5 μl analog was transferred from each well of columns 5-8 of the inhibitor plate to the corresponding well of the enzyme plate. At t=8 minutes, 5 μl analog was transferred from each well of columns 9-12 of the inhibitor plate to the corresponding well of the enzyme plate. The inhibitor plate was then frozen. […]

[2] = target: H. Influenzae ligase (D-Ala-D-Ala ligase) (Haemophilus influenzae, UniProt P44405); assay: D-Ala-D-Ala ligase Ki determination (PK/LDH coupled assay), H. influenzae ligase; settings: for Ki: Ki/ATP, avg, read-out: H. Influenzae ligase Ki/ATP (uM) avg
Description: as §1, §2, §3, §4, §5, §6, §7, §8, §9, §10, §11, §12

[3] = target: T1, Strep ligase (D-Ala-D-Ala ligase) (Streptococcus pneumoniae serotype 4, UniProt P0CB57); assay: D-Ala-D-Ala ligase Ki determination (PK/LDH coupled assay), Strep ligase; settings: for Ki: Ki/ATP, avg, read-out: Strep ligase Ki/ATP (uM) avg
T1 sequence (P0CB57 1-347): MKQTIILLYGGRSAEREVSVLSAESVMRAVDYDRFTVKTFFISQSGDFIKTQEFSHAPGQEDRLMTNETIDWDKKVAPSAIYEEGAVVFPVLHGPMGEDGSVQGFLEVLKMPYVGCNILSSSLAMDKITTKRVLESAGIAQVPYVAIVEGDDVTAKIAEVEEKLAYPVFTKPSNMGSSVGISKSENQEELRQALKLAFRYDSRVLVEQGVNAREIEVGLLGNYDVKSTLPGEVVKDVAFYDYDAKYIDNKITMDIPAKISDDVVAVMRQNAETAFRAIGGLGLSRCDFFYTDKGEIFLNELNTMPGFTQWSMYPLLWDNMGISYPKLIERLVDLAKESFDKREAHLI
Description: as §1, §2, §3, §4, §5, §6, §7, §8, §9, §10, §11, §12

[4] = target: Staph ligase (D-Ala-D-Ala ligase) (Staphylococcus aureus, UniProt Q5HEB7); assay: D-Ala-D-Ala ligase Ki determination (PK/LDH coupled assay), Staph ligase
Description: as §1, §2, §3, §4, §5, §6, §7, §8, §9, §10, §11, §12

[5] = E. coli ligase Ki/ATP (uM) avg, Table 5, Ki/ATP, avg
[6] = Table 5, Ki/ATP, avg, read-out: Staph ligase Ki/ATP (uM) avg
[7] = Table 1, read-out: Ki (E. coli ligase)/μM
[8] = Table 2, read-out: Staph ligase
[9] = E. coli ligase Ki/ATP (uM) avg, Table 4, Ki/ATP, avg
[10] = Table 4, Ki/ATP, avg, read-out: Staph ligase Ki/ATP (uM) avg

Staph ligase (D-Ala-D-Ala ligase), sequence (Q5HEB7 whole entry): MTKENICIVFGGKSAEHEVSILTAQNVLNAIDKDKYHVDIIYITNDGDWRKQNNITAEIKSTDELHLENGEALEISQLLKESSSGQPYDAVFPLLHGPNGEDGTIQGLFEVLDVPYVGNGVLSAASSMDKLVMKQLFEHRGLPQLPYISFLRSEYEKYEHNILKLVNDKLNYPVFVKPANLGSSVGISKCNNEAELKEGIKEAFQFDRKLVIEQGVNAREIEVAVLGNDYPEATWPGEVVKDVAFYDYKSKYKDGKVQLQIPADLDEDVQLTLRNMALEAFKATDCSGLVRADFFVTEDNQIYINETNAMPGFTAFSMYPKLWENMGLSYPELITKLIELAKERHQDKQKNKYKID
H. Influenzae ligase (D-Ala-D-Ala ligase), sequence (P44405 whole entry): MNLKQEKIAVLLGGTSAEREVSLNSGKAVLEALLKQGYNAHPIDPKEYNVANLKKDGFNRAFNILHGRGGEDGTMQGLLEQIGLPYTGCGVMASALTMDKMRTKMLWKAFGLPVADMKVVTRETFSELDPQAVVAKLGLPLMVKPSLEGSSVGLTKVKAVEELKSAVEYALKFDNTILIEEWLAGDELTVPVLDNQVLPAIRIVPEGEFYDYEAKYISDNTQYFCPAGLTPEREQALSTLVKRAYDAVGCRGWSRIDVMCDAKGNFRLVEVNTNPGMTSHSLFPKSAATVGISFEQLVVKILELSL

CCOc1ccc2ccccc2c1CN(CCCCN)c1ncc2c(N)nc(N)nc2n1 [N7-(4-Amino-butyl)-N-7-(2-ethoxynaphthalen-1-ylmethyl)-pyrimido[4,5-d]pyrimidine-2,4,7-triamine]
Ki [1, 5]: 0.105 µM
Ki ([1]; Ki against the ligase isolated from E. coli): 0.102 µM
Ki ([2]; Table 5): 0.52 µM
Ki ([3]; Table 5): 4.5 µM
Ki [4, 6]: 15 µM

CC1C(C)N(c2ncc3c(N)nc(N)nc3n2)C(C)C(C)N1c1ncc2c(N)nc(N)nc2n1 (stereo not drawn)
Ki [1, 7]: 2 µM

Cc1ccc(C(C)C)cc1OCc1ncc2c(N)nc(N)nc2n1
Ki [1, 7]: 20 µM

Nc1nc(N)c2cnc(N[C@H]3CCCc4ccccc43)nc2n1
Ki [1, 7]: 16 µM

CCC(c1cccc2ccccc12)N(C)c1ncc2c(N)nc(N)nc2n1 (stereo not drawn) [—CH3|C2H5|R/S|H, N7-Methyl-N-7-(1-naphthalen-1-yl-propyl)-pyrimido[4,5-d]pyrimidine-2,4,7-triamine]
Ki ([1]; E. coli ligase (μM), Table 2): 0.452 µM
Ki [4, 8]: 4.6 µM

Nc1nc(N)c2cnc(CSc3ccc(Cl)cc3)nc2n1
Ki [1, 7]: 12 µM

Cc1ccc([C@@H](C)N(CC2CC2)c2ncc3c(N)nc(N)nc3n2)c2ccccc12 [—CH2CH(CH2)2|CH3|R|CH3]
Ki ([1]; E. coli ligase (μM), Table 2): 0.174 µM
Ki [4, 8]: 62 µM

CC(c1cccc2ccccc12)N(C)c1ncc2c(N)nc(N)nc2n1 (stereo not drawn) [—CH3|CH3|R/S|H]
Ki ([1]; E. coli ligase (μM), Table 2): 0.718 µM
Ki [4, 8]: 9.28 µM

CCOc1ccc2ccccc2c1CN(CCC(=O)NCCN)c1ncc2c(N)nc(N)nc2n1
Ki for E. coli ligase (in words) [1]: less than one micromolar
Ki ([1]; E. coli ligase Ki/ATP (uM) avg, Table 3, Ki/ATP, avg): 0.7 µM
Ki for H. influenzae ligase (in words) [2]: less than one micromolar
Ki ([2]; Table 3): 1 µM
S. pneumoniae ligase activity (in words) [3]: single digit micromolar
Ki ([3]; Table 3): 1.9 µM
S. aureus ligase activity (in words) [4]: single digit micromolar
Ki ([4]; Table 3, Ki/ATP, avg, read-out: Staph ligase Ki/ATP (uM) avg): 4.7 µM

CCN(c1ncc2c(N)nc(N)nc2n1)[C@H](C)c1ccc(C)c2ccccc12 [—CH2CH3|CH3|R|CH3]
Ki ([1]; E. coli ligase (μM), Table 2): 0.102 µM
Ki [4, 8]: 71 µM

Nc1nc(N)c2cnc(NCc3ccc(Cl)c(Cl)c3)nc2n1
Ki [1, 7]: 20 µM

Nc1nc(N)c2cnc(N3C4CC3N4c3ccc(Cl)cc3)nc2n1
Ki [1, 7]: 12 µM

Nc1nc(N)c2nc(CNc3cc(Cl)cc(Cl)c3)cnc2n1
Ki [1, 7]: 1 µM

Nc1nc(N)c2cnc(N3CCC(O)(c4cccc(F)c4)CC3)nc2n1
Ki [1, 7]: 0.59 µM

Nc1nc(N)c2cnc(NCCNC(=O)c3c(Cl)cccc3Cl)nc2n1
Ki [1, 7]: 12 µM

Cc1ccc(C(C)N(C)c2ncc3c(N)nc(N)nc3n2)c2ccccc12 (stereo not drawn) [—CH3|CH3|R/S|CH3, N7-Methyl-N7-[1-(4-methyl-naphthalen-1-yl)-ethyl]-pyrimido[4,5-d]pyrimidine-2,4,7-triamine]
Ki ([1]; E. coli ligase (μM), Table 2): 0.277 µM
Ki [4, 8]: 12.3 µM

CN(Cc1cnc2ccccc2c1)c1ncc2c(N)nc(N)nc2n1
Ki [1, 7]: 1 µM

CC(C)c1nc2nc(N)nc(N)c2nc1C(C)C
Ki [1, 7]: 37 µM

Nc1nc(N)c2cnc(/C=C/c3ccccc3)nc2n1
Ki [1, 7]: 14 µM

Nc1nc(N)c2cnc(Nc3ccc(Cl)c(C(=O)NCc4cccs4)c3)nc2n1
Ki [1, 7]: 0.5 µM

Nc1nc(N)c2cc(NCc3ccc(C(=O)NCc4ccccn4)cc3)ccc2n1
Ki [1, 7]: 73 µM

C[C@H](c1ccc(F)c2ccccc12)N(C)c1ncc2c(N)nc(N)nc2n1 [CH3|CH3|R|F]
Ki ([1]; E. coli ligase (μM), Table 2): 0.104 µM
Ki [4, 8]: 27 µM

Nc1nc(N)c2ccc(-c3ccccc3)nc2n1
Ki [1, 7]: 31 µM

CCOc1ccc2ccccc2c1CN(CCC(=O)O)c1ncc2c(N)nc(N)nc2n1
Ki [1, 9]: 5.3 µM
Ki ([2]; Table 4): 3.7 µM
Ki ([3]; Table 4): 2.1 µM
Ki [4, 10]: 6.7 µM

Nc1nc(N)c2ncc(CNC(CO)CSCc3ccccc3)nc2n1 (stereo not drawn)
Ki [1, 7]: 55 µM

CC(c1cccc2ccccc12)N(CCCN)c1ncc2c(N)nc(N)nc2n1 (stereo not drawn)
Ki [1, 5]: 0.457 µM
Ki ([2]; Table 5): 5.5 µM
Ki ([3]; Table 5): 81.2 µM
Ki [4, 6]: 46 µM

C[C@@H](c1cccc2ccccc12)N(C[C@@H](O)C(=O)O)c1ncc2c(N)nc(N)nc2n1 (racemic)
Ki [1, 9]: 0.611 µM
Ki [4, 10]: 7.8 µM

CC(c1cccc2ccccc12)N(CC(O)C(=O)O)c1ncc2c(N)nc(N)nc2n1 (stereo not drawn)
Ki [1, 7]: 0.5 µM

CCCN(c1ncc2c(N)nc(N)nc2n1)C(C)c1cccc2ccccc12 (stereo not drawn)
Ki [1, 5]: 2 µM
Ki ([2]; Table 5): 2.7 µM
Ki ([3]; Table 5): 439 µM
Ki [4, 6]: 58 µM

CC(c1cccc2ccccc12)N(CCCCN)c1ncc2c(N)nc(N)nc2n1 (stereo not drawn) [drawing 41]
Ki [1, 7]: 0.13 µM

CN(Cc1cc2ccccc2s1)c1ncc2c(N)nc(N)nc2n1
Ki [1, 7]: 2.9 µM

Nc1nc(N)c2cnc(CNC(=O)/C=C/c3ccccc3)nc2n1
Ki [1, 7]: 92 µM

Nc1nc(N)c2cnc(N(CCCO)Cc3ccccc3)nc2n1
Ki [1, 7]: 14 µM

Nc1nc(N)c2cnc(N[C@H]3CCN(Cc4ccccc4)C3)nc2n1
Ki [1, 7]: 13 µM

CN(Cc1cccc2ccccc12)c1ncc2c(N)nc(N)nc2n1
Ki [1, 7]: 3 µM

CC(c1ccc(Cl)c2ccccc12)N(C)c1ncc2c(N)nc(N)nc2n1 (stereo not drawn) [—CH3|CH3|R/S|Cl]
Ki ([1]; E. coli ligase (μM), Table 2): 0.201 µM
Ki [4, 8]: 4.9 µM

CCN(c1ncc2c(N)nc(N)nc2n1)C(C)c1ccc(C)c2ccccc12 (stereo not drawn) [—CH2CH3|CH3|R/S|CH3]
Ki ([1]; E. coli ligase (μM), Table 2): 0.21 µM
Ki [4, 8]: 38.5 µM

CN(CCC=C1c2ccccc2CCc2ccccc21)c1ncc2c(N)nc(N)nc2n1
Ki [1, 7]: 9 µM

CCOc1ccc2ccccc2c1CN(CC(=O)O)c1ncc2c(N)nc(N)nc2n1
Ki [1, 7]: 8.7 µM

CC(Nc1ncc2c(N)nc(N)nc2n1)C(=O)Nc1ccc2ccccc2c1 (stereo not drawn)
Ki [1, 7]: 29 µM
